Literature values in PMC9387934, “Randomized single oral dose phase 1 study of safety, tolerability, and pharmacokinetics of Iminosugar UV-4 Hydrochloride (UV-4B) in healthy subjects” (PLoS Neglected Tropical Diseases, 2022).

Experiments:
[1] = doses of 100 mg TID or less; cited from earlier work
[2] = design: method as in Zavesca SmPC; details: ref Zavesca SmPC; cited from earlier work
[3] = dogs, 105 mg/kg/day given over 4 weeks; cited from earlier work
[4] = design: method as in FDA Advisory Briefing Book for Miglustat; details: humans, doses of up to 1000 mg TID; ref FDA Advisory Briefing Book for Miglustat; cited from earlier work
[5] = healthy male subjects; cited from earlier work
[6] = 212 obese patients treated for 36 months; cited from earlier work
[7] = 1108 patients, average of 6 months; cited from earlier work
[8] = 300 mg BID; grade 3 transaminase, CK, and LDH elevations; cited from earlier work

SMILES: CCCCN1C[C@H](O)[C@@H](O)[C@H](O)[C@H]1CO [miglustat, N-butyl-Deoxynojirimycin]
- Association with AST and ALT elevations [1]: does not appear to be associated
- NOAEL [2]: 20 mg/kg
- Neurologic findings [3]: tremor and reduction or absence of corneal reflexes
- Histamine-like findings as seen in rats [4]: no similar findings
- AST elevations [5]: no AST elevations

SMILES: C[C@H]1O[C@H](O[C@H]2[C@H](O)[C@@H](O)[C@@H](O[C@H]3[C@H](O)[C@@H](O)C(O)O[C@@H]3CO)O[C@@H]2CO)[C@H](O)[C@@H](O)[C@@H]1N[C@H]1C=C(CO)[C@@H](O)[C@H](O)[C@H]1O (some centres unmarked) [acarbose]
- ALT elevations, share of patients [6]: 9%
- Rates of ALT elevations versus placebo [7]: no different

SMILES: CCCC(=O)O[C@H]1CN2CC[C@H](O)[C@@H]2[C@@H](O)[C@@H]1O [Celgosivir]
- Outcome of safety and tolerability study [8]: prematurely discontinued
